Consider two compounds from patent US20240415793A1, “Neuroprotective composition comprising pyruvate and citrate” (N.V. Nutricia, priority 2022, published 2024).

Test [1] relates to neuroglial cell cultures. Description: Seahorse assay (OCR/ECAR), acute effects under seizure- and ketogenic diet-like conditions. The class given is cell-based, rat. The settings on record: HBSS, 0.1 mM Mg2+, 1 mM glucose, 500 μM bHB, 1 mM pyruvate, 1 mM citrate as added, vs control medium. As to the method:
(§1) The oxygen consumption rates (OCRs) and extracellular acidification rates (ECARs) of cells seeded in 96-well plates were monitored in real time at 37° C. in unbuffered Hanks Balanced Salt Solution (HBSS). The OCRs represent foremost mitochondrial respiration, and to a minor extent non-mitochondrial respiration. The ECARs relate foremost to the acidification of the medium with lactate produced through glycolysis and secreted by the cells into the medium (Table 1).
(§2) During the Seahorse run, both the OCRs and ECARs were measured simultaneously at baseline and following the injection of compounds by the Seahorse instrument (Table 1). HBSS was supplemented with glucose from the start and no glucose was injected through the Seahorse instruments. Measurements were repeated three times at baseline and three times after each compound injection.
(§3) After the initial baseline measurement, oligomycin (OM) was injected. OM blocks mitochondrial ATP synthase (complex V) and therefore decreases mitochondrial respiration. The OCRs after OM injection are due to the mitochondrial proton leak. They enable to determine whether the test nutrients impact the proton leak. The difference in OCRs at baseline and after OM injection is the amount of oxygen used for mitochondrial ATP synthesis at baseline. From this difference in OCR, the mitochondrial ATP production rates are calculated.
After OM, uncoupling agent carbonyl cyanide-p- trifluoromethoxyphenyl-hydrazon [FCCP] was injected which collapses the proton gradient across the inner mitochondrial membrane established during respiration and required for ATP synthesis. The cells attempt to restore the proton gradient following FCCP injection by maximizing respiration. The OCRs measured after FCCP injection therefore represent the maximal respiratory capacity of the mitochondria in the sample and enable to determine whether test nutrients impact the maximal respiratory capacity of the mitochondria.
Finally, Antimycin A, a complex III inhibitor, and Rotenone, a complex I inhibitor, were co-injected, both blocking the respiratory chain at different sites to entirely shut down mitochondrial respiration and determine the non-mitochondrial respiration. The latter is necessary to correct all OCRs and obtain the mitochondrial OCRs.
The ECARs were measured simultaneously at baseline and after OM and FCCP injection. The glycolytic ATP production was calculated from the baseline ECARs. The subsequent injection of OM pushed the cells to maximize their glycolytic ATP production to compensate for the loss in mitochondrial ATP production inflicted by OM. The further addition of FCCP drove mitochondrial respiration to a maximum and this eventually led to a further increase in glycolytic rates providing pyruvate into the TCA cycle to sustain maximal respiration. Therefore, the ECARs after FCCP injection were used to determine the maximum glycolytic capacity of the cells.
To assess the effect of citrate and pyruvate under seizure- and ketogenic diet-like conditions a batch of cells was switched one hour prior to the Seahorse run to HBSS medium (which is a nutrient deprived culture medium) containing low (1 mM) glucose, 500 μM bHB and low (0.1 mM) Mg^2+, 1 mM citrate or 1 mM pyruvate (FIG. 6). The ketone p-hydroxybutyrate (bHB) was included during the Seahorse run at a concentration of 500 μM to mimic the nutrient environment of a ketogenic diet. This bHB concentration corresponds to the circulating bHB concentration of a mild ketogenic diet such as the Modified Atkins Diet.
For the Seahorse assay that was run under seizure- and ketogenic diet like-conditions the cells were then incubated in HBSS medium containing low (0.1 mM) Mg^2+ and one of the following additions: • i) 1 mM glucose (control medium), • ii) 500 μM bHB, • iii) 500 μM bHB plus 1 mM citrate, • iv) 500 μM bHB plus 1 mM pyruvate or • v) 500 μM bHB with 1 mM citrate plus 1 mM pyruvate. […]

The subject of test [2] is primary mouse neuroglial cultures. The test is described as follows: Cell death by high content imaging (Hoechst/NeuN nuclear shrinkage) after chronic hyperstimulation. The class given is cell-based. Particulars: 1 mM; for dead neuron count (neuron death): FIG. 10F/11F. As to the method:
To determine whether pyruvate and citrate protect neurons and glial cells from cell death induced by chronic electrical hyperstimulation. To assess protection from cell death induced by repeated hyperstimulation, primary mouse neuroglial cultures were assayed. Neuroglial cell cultures were prepared and grown until DIV14 as described above. From DIV14 until DIV17 they were switched to NBM containing B27, low (2.5 mM) glucose, and low (0.1 mM) Mg^2+ or high (0.8 mM) Mg^2+. Incubation in low (0.1 mM) Mg^2+ medium increases the neuronal firing rates, thus creating a state of chronic hyperstimulation. The test nutrients (pyruvate or citrate) were supplied through the medium from DIV14 until DIV17. On DIV17, the cell nuclei were stained with the Hoechst dye and co-immunolabelled for NeuN, a protein found only in the nuclei of neurons. The neuronal and non-neuronal cell nuclei were scored for nuclear shrinkage, a hallmark of cell death, by high content imaging.
To assess cell death by high content imaging the cells were fixed on DIV17 in 1% formaldehyde, permeabilized with ethanol and incubated with a rabbit polyclonal IgG antibody against NeuN, a neuron-specific protein localized to the nucleus, followed by detection with a secondary anti-rabbit IgG antibody linked to a red fluorescent label. Neuronal and non-neuronal cell nuclei were then counterstained with the blue fluorescent nuclear dye Hoechst. The nuclei were counted by a high content imager based on signal intensity and size. A cut-off value was applied to exclude objects of low signal intensity considered noise. Then, cut-off values were applied to exclude objects with an area below 30 μM^2 considered cell debris and objects with an area above 300 μM^2 considered cell clumps. A boundary of 60 μM^2 was set to distinguish between nuclei from alive and dead cells. Objects areas of 30 μM^2 to 60 μM^2 were counted as nuclei from dead cells, while object areas of 60 μM^2 to 300 μM^2 were counted as nuclei from alive cells. The counting was done at 20-fold magnification on a fixed number of optical fields per well. The counts of nuclei from dead neurons or dead cells were related to the number of alive neurons or alive cells, respectively, in the same well.
Neuroglial cell cultures were supplemented with 1 mM citrate from DIV14 until DIV17. On DIV17, total cell death and neuron-specific cell death were quantified by high content imaging. The total number of Hoechst positive objects or NeuN positive objects prior to applying cut-off values for the signal intensity and the area size was equal between the different groups (FIG. 10 A, D).

The subject of test [3] is primary rat neuronal-glial cell cultures. Description: Seahorse assay (OCR/ECAR), acute 1 h nutrient pre-incubation, resting or seizure-like conditions. The class given is cell-based.
For test [4] the test system is unchanged. Described as above. The class given is cell-based. The settings on record: 0.25 mM and 1 mM pyruvate in low Mg2+ medium vs low Mg2+ medium without pyruvate. As to the method: A Seahorse assay was performed on primary rat neuronal-glial cell cultures to determine the impact of pyruvate and citric acid on glycolytic rates and lactate delivery, mitochondrial respiration and total (glycolytic and mitochondrial) ATP production.
Rat cortical cells were isolated from embryonic day 18 embryos using a combination of enzymatic and mechanical dissociation of brain cortical rat tissue. Immediately after dissociation, the cells were seeded at a density of 500′000 cells per mL in 96-well plates and grown at 37° C. for two weeks from day in vitro (DIV) 0 until DIV14 in Neurobasal medium supplemented with 2% (v/v) B27, 0.8 mM Magnesium (Mg2+), 25 mM glucose and 1% (v/v) Penicillin/Streptomycin. During this time neuronal axons grew out and formed synaptic contacts. In addition, glial cells, foremost astrocytes, grew and formed contacts with neurons. The incubation in 25 mM glucose accelerated the differentiation and network growth of neurons.
From DIV14 until DIV17, the cells were incubated in Neurobasal medium supplemented with 2% (v/v) B27, 0.8 mM Mg2+, 5 mM glucose and 1% (v/v) Penicillin/Streptomycin. The switch from high to low glucose was done to approach the low intracerebral glucose concentration of the human brain and create a more physiological metabolic environment.
The switch from 5 mM to 1 mM glucose matched the glucose concentrations in the human brain. Meanwhile the switch from high (0.8 mM) to low (0.1 mM) Mg^2+ increases the electrical firing frequency of neurons because Mg2+ is an inhibitor of excitatory NMDA-type ionotropic glutamate receptors, which account for most of the neuronal firing in this cell culture model. The increase in neuronal firing caused by incubation in 0.1 mM Mg^2+ increases the energy production of neurons and glial cells as reflected in the increase in basal respiration (FIG. 1B and E). After 1 hour of pre-incubation in the Seahorse medium containing the nutrients, the oxygen consumption rate [OCRs] and extracellular acidification rate [ECARs] of the neuroglial culture were measured in the Seahorse assay.
as §1, §2, §3
After OM, uncoupling agent carbonyl cyanide-p- trifluoromethoxyphenyl-hydrazon [FCCP] was injected which collapses the proton gradient across the inner mitochondrial membrane established during respiration and required for ATP synthesis. The cells attempt to restore the proton gradient following FCCP injection by maximizing respiration. […]

With `CC(O)CC(=O)O` (centres unmarked) [bHB, b-hydroxybutyrate], in test [1] (FIG. 6A), the “change in basal glycolytic ATP production” value was “did not alter”; the “change in total (mitochondrial and glycolytic) ATP production” value is given as “did not impact”. Further, in test [1] (FIG. 6B), the “change in basal (mitochondrial) respiration” value is recorded as “did not impact”. Further, the “change in FCCP-driven maximal respiratory capacity” value in test [1] (FIG. 6D) is “did not impact”. The “change in basal glycolysis” value in test [1] (FIG. 7A) was “did not alter”. Also, the “change in FCCP-driven maximal glycolytic capacity” value in test [1] (FIG. 7C) is given as “did not alter”.

Consider `CC(=O)C(=O)O` [pyruvate], for which, in test [2] (DIV14-DIV17, chronic hyperstimulation, FIG. 10C/11C), the “increase in dead cell counts from high Mg2+ to low Mg2+ medium” value was ~1%. Moreover, the dead cell counts in test [2] (DIV14-DIV17, high (0.8 mM) Mg2+ medium, FIG. 10C/11C) is reported as ~19%; in test [2] (DIV14-DIV17, low (0.1 mM) Mg2+ medium, FIG. 10C/11C), ~20%. Further, the “dead neuron count (neuron death)” value in test [2] (DIV14-DIV17, high Mg2+ medium) was −1.5%; in test [2] (DIV14-DIV17, low Mg2+ medium), ~1.4%. The “increase in total (mitochondrial and glycolytic) ATP production rates” value in test [3] (0.25 mM and 1 mM pyruvate in low (0.1 mM) Mg2+ medium vs low Mg2+ medium without pyruvate, FIG. 1A) is 400-500%. The “increase in FCCP-driven maximal respiratory capacity” value in test [3] (0.25 mM and 1 mM pyruvate in low Mg2+ medium vs low Mg2+ medium without pyruvate, FIG. 1D) was 200-250%. Also, the “increase in basal respiration” value in test [4] (FIG. 1B) was 30-40%. Moreover, the “increase in oligomycin-induced proton leak” value in test [4] (FIG. 1C) is reported as 10-15%. For the same compound, the “increase in glycolytic rates at baseline” value in test [4] (FIG. 2A) is on record as 15-20%. In addition, the “increase in glycolytic rates after FCCP injection” value in test [4] (FIG. 2C) is 20-30%.
